We go through 6 compounds from ChEMBL document CHEMBL5380774, “Fragment-to-Lead Medicinal Chemistry Publications in 2021” (J Med Chem, 2023).

The target of one assay is T1, Adenosine receptor A1 (Homo sapiens, UniProt P30542).
T1 sequence (P30542 whole entry): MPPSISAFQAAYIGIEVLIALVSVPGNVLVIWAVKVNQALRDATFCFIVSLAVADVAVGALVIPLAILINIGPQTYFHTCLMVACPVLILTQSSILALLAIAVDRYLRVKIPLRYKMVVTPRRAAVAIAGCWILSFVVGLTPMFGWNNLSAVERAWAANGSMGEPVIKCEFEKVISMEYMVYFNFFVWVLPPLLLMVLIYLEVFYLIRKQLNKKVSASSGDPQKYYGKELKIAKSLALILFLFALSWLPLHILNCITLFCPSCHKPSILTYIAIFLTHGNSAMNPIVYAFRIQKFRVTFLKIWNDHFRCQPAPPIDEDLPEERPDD
Nature of the assay: Binding affinity to human A1AR assessed as inhibition constant.

The target in assay [1] is Proto-oncogene tyrosine-protein kinase receptor Ret (Homo sapiens, UniProt P07949). Kind of assay: Inhibition of rearranged during transfection kinase (unknown origin).
Sequence of Proto-oncogene tyrosine-protein kinase receptor Ret (P07949 whole entry, the tested form may be a part): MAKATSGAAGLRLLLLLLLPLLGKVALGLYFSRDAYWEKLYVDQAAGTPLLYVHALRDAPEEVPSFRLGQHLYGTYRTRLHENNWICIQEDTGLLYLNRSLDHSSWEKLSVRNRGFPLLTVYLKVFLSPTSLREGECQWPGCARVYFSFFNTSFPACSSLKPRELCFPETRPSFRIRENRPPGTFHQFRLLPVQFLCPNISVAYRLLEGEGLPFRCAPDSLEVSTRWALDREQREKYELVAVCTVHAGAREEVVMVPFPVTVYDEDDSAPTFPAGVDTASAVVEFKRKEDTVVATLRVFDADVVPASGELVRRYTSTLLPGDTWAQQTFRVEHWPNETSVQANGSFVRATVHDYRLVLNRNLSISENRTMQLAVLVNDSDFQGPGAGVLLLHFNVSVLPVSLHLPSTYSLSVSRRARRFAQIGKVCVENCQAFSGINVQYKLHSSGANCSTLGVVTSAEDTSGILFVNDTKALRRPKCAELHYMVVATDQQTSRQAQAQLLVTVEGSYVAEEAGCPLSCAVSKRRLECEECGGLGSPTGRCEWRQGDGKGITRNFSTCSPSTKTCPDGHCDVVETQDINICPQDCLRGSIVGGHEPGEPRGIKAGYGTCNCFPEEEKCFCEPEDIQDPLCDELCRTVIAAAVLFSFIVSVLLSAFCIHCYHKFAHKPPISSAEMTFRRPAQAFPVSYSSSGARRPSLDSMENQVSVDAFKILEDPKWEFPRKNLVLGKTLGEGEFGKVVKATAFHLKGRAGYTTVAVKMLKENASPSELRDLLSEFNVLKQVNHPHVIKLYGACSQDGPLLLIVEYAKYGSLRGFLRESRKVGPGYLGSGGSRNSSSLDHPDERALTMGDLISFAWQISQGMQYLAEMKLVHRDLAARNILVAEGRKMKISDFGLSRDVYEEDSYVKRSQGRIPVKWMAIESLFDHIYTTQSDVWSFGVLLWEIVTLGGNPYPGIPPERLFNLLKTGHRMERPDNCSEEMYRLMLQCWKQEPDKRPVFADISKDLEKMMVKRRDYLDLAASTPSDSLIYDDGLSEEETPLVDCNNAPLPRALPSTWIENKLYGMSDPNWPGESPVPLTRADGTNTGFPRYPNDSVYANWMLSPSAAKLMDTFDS
Assay [2] concerns the target T2, Histone-lysine N-methyltransferase ASH1L (Homo sapiens, UniProt Q9NR48). Nature of the assay: Binding affinity to ASH1L SET domain (2069 to 2288 residues) (unknown origin) assessed as dissociation constant by ITC analysis.
Assay [3] concerns the target T3, Muscarinic acetylcholine receptor M1 (Homo sapiens, UniProt P11229).
T3 sequence (P11229 whole entry): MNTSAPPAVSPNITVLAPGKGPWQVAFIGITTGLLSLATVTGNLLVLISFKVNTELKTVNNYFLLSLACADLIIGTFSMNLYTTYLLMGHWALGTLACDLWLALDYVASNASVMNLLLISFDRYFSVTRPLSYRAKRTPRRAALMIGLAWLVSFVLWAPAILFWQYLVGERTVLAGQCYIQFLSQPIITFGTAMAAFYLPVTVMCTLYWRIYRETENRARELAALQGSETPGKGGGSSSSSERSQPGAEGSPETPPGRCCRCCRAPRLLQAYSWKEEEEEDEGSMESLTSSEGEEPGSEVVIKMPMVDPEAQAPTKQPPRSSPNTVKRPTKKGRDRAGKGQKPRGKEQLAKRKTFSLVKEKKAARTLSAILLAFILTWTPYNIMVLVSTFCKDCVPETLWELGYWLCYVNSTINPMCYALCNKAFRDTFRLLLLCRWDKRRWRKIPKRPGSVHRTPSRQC
Kind of assay: Agonist activity at human M1 receptor. The format is functional.

The target in assay [4] is YEATS domain-containing protein 4 (Homo sapiens, UniProt O95619). Nature of the assay: Inhibition of human N-terminal GST tagged GAS41 (1 to 148 residues) incubated for 1 hr by fluorescence polarization assay. In general terms: Polarisation of emitted light reports the rotation of a fluorescent probe.
Sequence of YEATS domain-containing protein 4 (O95619 whole entry, the tested form may be a part): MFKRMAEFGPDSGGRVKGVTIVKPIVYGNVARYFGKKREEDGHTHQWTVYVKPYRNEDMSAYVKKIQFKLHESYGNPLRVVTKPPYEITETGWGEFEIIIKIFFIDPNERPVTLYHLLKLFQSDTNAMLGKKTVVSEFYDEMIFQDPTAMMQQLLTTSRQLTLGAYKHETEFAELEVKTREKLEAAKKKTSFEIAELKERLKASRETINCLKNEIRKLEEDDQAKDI
For assay [5], the target named is T2, Histone-lysine N-methyltransferase ASH1L. Kind of assay: Inhibition of N-terminal Mocr-tagged ASH1L (2069 to 2288 residues) (unknown origin) expressed in Escherichia coli BL21 (DE3) by […]. (ITC needs no label: the signal is the heat of the interaction.)

What is called Ki is a dissociation constant, usually derived from enzyme kinetics or from competition with a known ligand. Regarding `CC(=O)Nc1nc2ccccc2s1`, on Adenosine receptor A1, the Ki came to 11 µM.
As a reminder, the IC50 is the midpoint of a concentration-inhibition curve. Take `Nc1ncnc2[nH]ncc12`: the IC50 in assay [1] was 9.2 µM.
For orientation: Kd means the concentration at which binding is half-saturated. Consider `NC(=S)c1cccc(-n2cccc2)c1`, for which the Kd in assay [2] is above 1000 µM.
The EC50 is the concentration that produces a half-maximal response. In turn, `CCOC(=O)N1CCC(N2CCC(C(N)=O)CC2)CC1` gave an EC50 in assay [3] of 3.2 µM.
In turn, `O=C(Nc1ccc(C(=O)N2CC(c3nc4ccccc4s3)C2)s1)[C@@H]1C[C@@H](OCCCCCO[C@H]2CN[C@H](C(=O)Nc3ccc(C(=O)N4CC(c5nc6ccccc6s5)C4)s3)C2)CN1` showed an IC50 in assay [4] of 0.096 µM.
`CN1CC(C(=O)NCc2ccc3c(-c4cccc(C(N)=S)c4)cn(C4CCC(S(=O)(=O)C(F)(F)F)CC4)c3c2)C1` (stereo unspecified): the midpoint of inhibition in assay [5], the IC50, lay at 0.79 µM.
